Reference: ChEMBL document CHEMBL4507305, “Data for DCP probe TP-024” (2021)

How the values were obtained:
[1] = biological target: Tyrosine-protein kinase FRK (Homo sapiens) (UniProt P42685); details: Compound concentration 1000.0 nM
[2] = biological target: Serine/threonine-protein kinase NLK (Homo sapiens) (UniProt Q9UBE8); details: Compound concentration 1000.0 nM
[3] = biological target: Activin receptor type-1-like (Homo sapiens) (UniProt P37023); details: Compound concentration 1000.0 nM
[4] = biological target: Homeodomain-interacting protein kinase 1 (Homo sapiens) (UniProt Q86Z02); details: Compound concentration 1000.0 nM
[5] = biological target: Discoidin domain-containing receptor 2 (Homo sapiens) (UniProt Q16832); details: Compound concentration 1000.0 nM
[6] = tested on: Phosphatidylinositol 4,5-bisphosphate 3-kinase catalytic subunit alpha isoform (Homo sapiens), P42336 [C420R]; details: Compound concentration 1000.0 nM
[7] = biological target: Phosphorylase b kinase gamma catalytic chain, skeletal muscle/heart isoform (Homo sapiens) (UniProt Q16816); details: Compound concentration 1000.0 nM
[8] = biological target: Serine/threonine-protein kinase 24 (Homo sapiens) (UniProt Q9Y6E0); details: Compound concentration 1000.0 nM
[9] = biological target: Mitogen-activated protein kinase kinase kinase 20 (Homo sapiens) (UniProt Q9NYL2); details: Compound concentration 1000.0 nM
[10] = biological target: Beta-adrenergic receptor kinase 1 (Homo sapiens) (UniProt P25098); details: Compound concentration 1000.0 nM
[11] = biological target: Membrane-associated tyrosine- and threonine-specific cdc2-inhibitory kinase (Homo sapiens) (UniProt Q99640); details: Compound concentration 1000.0 nM
[12] = biological target: Mitogen-activated protein kinase kinase kinase 13 (Homo sapiens) (UniProt O43283); details: Compound concentration 1000.0 nM
[13] = biological target: Serine/threonine-protein kinase Nek6 (Homo sapiens) (UniProt Q9HC98); details: Compound concentration 1000.0 nM
[14] = biological target: Serine/threonine-protein kinase Nek5 (Homo sapiens) (UniProt Q6P3R8); details: Compound concentration 1000.0 nM
[15] = biological target: Tyrosine-protein kinase Fgr (Homo sapiens) (UniProt P09769); details: Compound concentration 1000.0 nM
[16] = biological target: Cyclin-dependent kinase 2 homolog (Plasmodium falciparum (isolate 3D7)) (UniProt P61075); details: Compound concentration 1000.0 nM
[17] = biological target: Leucine-rich repeat serine/threonine-protein kinase 2 (Homo sapiens) (UniProt Q5S007); details: Compound concentration 1000.0 nM
[18] = biological target: Cyclin-dependent kinase 17 (Homo sapiens) (UniProt Q00537); details: Compound concentration 1000.0 nM
[19] = biological target: Hepatocyte growth factor receptor (Homo sapiens) (UniProt P08581); details: Compound concentration 1000.0 nM
[20] = biological target: Serine/threonine-protein kinase 33 (Homo sapiens) (UniProt Q9BYT3); details: Compound concentration 1000.0 nM
[21] = biological target: Serine/threonine-protein kinase ULK2 (Homo sapiens) (UniProt Q8IYT8); details: Compound concentration 1000.0 nM
[22] = biological target: Tyrosine-protein kinase receptor UFO (Homo sapiens) (UniProt P30530); details: Compound concentration 1000.0 nM
Chain of Tyrosine-protein kinase receptor UFO (Homo sapiens) (P30530 whole entry): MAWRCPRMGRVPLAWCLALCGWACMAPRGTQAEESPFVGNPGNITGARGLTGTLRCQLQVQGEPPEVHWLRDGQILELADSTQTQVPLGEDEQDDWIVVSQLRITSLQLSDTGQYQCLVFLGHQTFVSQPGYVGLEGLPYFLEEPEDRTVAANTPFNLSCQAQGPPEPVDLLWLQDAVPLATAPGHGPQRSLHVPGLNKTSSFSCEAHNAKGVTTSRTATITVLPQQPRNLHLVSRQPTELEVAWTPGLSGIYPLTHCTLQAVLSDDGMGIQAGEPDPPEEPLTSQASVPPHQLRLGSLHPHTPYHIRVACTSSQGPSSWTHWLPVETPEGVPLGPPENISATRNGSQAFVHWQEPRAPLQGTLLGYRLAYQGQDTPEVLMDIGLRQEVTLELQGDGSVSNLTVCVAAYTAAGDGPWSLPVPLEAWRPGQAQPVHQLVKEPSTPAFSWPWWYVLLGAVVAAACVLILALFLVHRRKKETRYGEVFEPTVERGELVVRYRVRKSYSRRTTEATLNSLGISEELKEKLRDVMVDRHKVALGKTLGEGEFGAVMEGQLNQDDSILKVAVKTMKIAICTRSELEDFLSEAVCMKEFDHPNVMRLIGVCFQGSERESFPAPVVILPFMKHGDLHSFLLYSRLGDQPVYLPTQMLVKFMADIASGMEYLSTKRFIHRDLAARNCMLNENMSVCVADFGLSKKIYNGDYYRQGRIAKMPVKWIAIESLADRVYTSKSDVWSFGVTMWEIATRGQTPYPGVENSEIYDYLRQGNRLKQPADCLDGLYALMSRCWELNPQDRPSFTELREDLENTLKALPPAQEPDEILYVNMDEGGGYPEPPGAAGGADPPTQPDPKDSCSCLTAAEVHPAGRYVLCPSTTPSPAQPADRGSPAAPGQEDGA

[23] = biological target: Serine/threonine-protein kinase RIO3 (Homo sapiens) (UniProt O14730); details: Compound concentration 1000.0 nM
[24] = biological target: Alpha-1B adrenergic receptor (Homo sapiens) (UniProt P35368); details: Compound concentration 10.0 uM
Chain of Alpha-1B adrenergic receptor (Homo sapiens) (P35368 whole entry): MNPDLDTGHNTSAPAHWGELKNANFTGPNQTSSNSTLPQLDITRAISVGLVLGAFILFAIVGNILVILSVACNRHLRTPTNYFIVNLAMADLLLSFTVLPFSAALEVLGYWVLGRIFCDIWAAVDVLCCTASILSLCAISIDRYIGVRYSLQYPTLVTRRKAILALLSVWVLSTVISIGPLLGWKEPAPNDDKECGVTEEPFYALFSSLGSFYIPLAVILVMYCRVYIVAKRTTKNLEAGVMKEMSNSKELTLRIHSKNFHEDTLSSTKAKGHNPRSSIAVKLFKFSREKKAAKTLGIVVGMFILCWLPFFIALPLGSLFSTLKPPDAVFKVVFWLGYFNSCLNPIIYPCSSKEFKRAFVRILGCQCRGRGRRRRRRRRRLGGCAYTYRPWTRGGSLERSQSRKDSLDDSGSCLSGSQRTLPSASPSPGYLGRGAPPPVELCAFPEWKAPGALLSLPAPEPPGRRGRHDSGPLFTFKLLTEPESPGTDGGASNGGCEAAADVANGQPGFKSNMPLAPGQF

[25] = biological target: Cyclin-dependent kinase 7 (Homo sapiens) (UniProt P50613); details: Compound concentration 1000.0 nM
[26] = biological target: Phosphatidylinositol 5-phosphate 4-kinase type-2 gamma (Homo sapiens) (UniProt Q8TBX8); details: Compound concentration 1000.0 nM
[27] = biological target: Vascular endothelial growth factor receptor 3 (Homo sapiens) (UniProt P35916); details: Compound concentration 1000.0 nM
[28] = biological target: RAF proto-oncogene serine/threonine-protein kinase (Homo sapiens) (UniProt P04049); details: Compound concentration 1000.0 nM
Chain of RAF proto-oncogene serine/threonine-protein kinase (Homo sapiens) (P04049 whole entry): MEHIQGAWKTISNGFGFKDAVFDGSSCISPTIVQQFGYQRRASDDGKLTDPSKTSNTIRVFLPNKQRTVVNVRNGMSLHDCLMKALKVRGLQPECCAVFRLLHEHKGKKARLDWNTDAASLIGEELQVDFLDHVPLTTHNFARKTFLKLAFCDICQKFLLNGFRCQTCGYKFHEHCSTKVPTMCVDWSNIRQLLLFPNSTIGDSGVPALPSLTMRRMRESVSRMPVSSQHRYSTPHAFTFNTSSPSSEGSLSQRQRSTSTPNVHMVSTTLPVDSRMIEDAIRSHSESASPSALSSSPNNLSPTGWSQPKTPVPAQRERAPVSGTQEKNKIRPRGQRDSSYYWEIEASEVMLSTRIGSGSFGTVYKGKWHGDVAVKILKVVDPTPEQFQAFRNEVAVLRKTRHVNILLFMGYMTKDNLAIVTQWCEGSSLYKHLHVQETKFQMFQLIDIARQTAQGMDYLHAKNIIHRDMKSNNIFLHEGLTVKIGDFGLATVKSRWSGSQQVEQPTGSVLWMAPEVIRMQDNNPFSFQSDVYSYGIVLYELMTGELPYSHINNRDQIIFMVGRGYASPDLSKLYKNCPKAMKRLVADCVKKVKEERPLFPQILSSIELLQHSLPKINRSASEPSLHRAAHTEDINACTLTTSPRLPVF

[29] = biological target: Serine/threonine-protein kinase TAO1 (Homo sapiens) (UniProt Q7L7X3); details: Compound concentration 1000.0 nM
[30] = biological target: Fibroblast growth factor receptor 3 (Homo sapiens) (UniProt P22607); details: Compound concentration 1000.0 nM
Chain of Fibroblast growth factor receptor 3 (Homo sapiens) (P22607 23-806 limits assumed): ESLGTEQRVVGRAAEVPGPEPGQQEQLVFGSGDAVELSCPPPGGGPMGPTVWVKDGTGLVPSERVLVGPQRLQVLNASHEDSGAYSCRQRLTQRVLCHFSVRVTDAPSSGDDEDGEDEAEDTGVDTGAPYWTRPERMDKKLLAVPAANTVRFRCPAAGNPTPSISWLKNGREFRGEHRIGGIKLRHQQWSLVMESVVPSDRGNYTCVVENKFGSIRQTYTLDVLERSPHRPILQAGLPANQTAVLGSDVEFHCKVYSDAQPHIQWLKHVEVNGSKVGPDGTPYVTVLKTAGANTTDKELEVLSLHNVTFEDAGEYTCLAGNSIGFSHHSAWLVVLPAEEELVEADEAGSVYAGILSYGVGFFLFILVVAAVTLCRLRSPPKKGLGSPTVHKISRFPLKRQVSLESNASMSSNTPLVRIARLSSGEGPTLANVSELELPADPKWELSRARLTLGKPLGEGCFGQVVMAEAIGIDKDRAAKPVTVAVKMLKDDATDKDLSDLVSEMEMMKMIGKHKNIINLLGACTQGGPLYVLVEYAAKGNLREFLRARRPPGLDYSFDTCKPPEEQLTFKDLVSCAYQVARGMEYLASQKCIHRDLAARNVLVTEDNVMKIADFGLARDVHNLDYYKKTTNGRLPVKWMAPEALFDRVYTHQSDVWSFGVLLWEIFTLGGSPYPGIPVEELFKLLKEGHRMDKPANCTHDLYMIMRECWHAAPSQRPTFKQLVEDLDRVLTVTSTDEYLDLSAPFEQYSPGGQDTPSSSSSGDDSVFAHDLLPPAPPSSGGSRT

[31] = biological target: Cyclin-dependent kinase 16 (Homo sapiens) (UniProt Q00536); details: Compound concentration 1000.0 nM
[32] = biological target: Fibroblast growth factor receptor 4 (Homo sapiens) (UniProt P22455); details: Compound concentration 1000.0 nM
[33] = biological target: Hormonally up-regulated neu tumor-associated kinase (Homo sapiens) (UniProt P57058); details: Compound concentration 1000.0 nM
[34] = tested on: Tyrosine-protein kinase ABL1 (Homo sapiens), P00519 [H396P]; details: Compound concentration 1000.0 nM
[35] = biological target: 5-hydroxytryptamine receptor 1E (Homo sapiens) (UniProt P28566); details: Compound concentration 10.0 uM
[36] = biological target: NUAK family SNF1-like kinase 1 (Homo sapiens) (UniProt O60285); details: Compound concentration 1000.0 nM
[37] = biological target: Serine/threonine-protein kinase MAK (Homo sapiens) (UniProt P20794); details: Compound concentration 1000.0 nM
[38] = biological target: MAP kinase-interacting serine/threonine-protein kinase 1 (Homo sapiens) (UniProt Q9BUB5); details: Compound concentration 1000.0 nM
[39] = biological target: SNF-related serine/threonine-protein kinase (Homo sapiens) (UniProt Q9NRH2); details: Compound concentration 1000.0 nM
[40] = biological target: Glycogen synthase kinase-3 beta (Homo sapiens) (UniProt P49841); details: Compound concentration 1000.0 nM
Chain of Glycogen synthase kinase-3 beta (Homo sapiens) (P49841 whole entry, looked up): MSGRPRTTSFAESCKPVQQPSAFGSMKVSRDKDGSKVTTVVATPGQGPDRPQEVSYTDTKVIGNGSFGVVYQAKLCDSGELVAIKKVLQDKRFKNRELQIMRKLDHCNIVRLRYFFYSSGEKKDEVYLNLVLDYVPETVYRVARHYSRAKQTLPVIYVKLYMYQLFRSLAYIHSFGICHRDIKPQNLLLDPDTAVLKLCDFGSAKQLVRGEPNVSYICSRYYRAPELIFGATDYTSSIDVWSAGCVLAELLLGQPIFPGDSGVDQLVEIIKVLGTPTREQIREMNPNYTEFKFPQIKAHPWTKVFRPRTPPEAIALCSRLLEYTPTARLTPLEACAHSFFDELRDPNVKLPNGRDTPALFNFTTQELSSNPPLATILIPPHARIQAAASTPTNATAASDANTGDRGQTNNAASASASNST

[41] = biological target: RAC-alpha serine/threonine-protein kinase (Homo sapiens) (UniProt P31749); details: Compound concentration 1000.0 nM
[42] = tested on: Receptor-type tyrosine-protein kinase FLT3 (Homo sapiens), P36888 [UNDEFINED MUTATION]; details: Compound concentration 1000.0 nM
Chain of Receptor-type tyrosine-protein kinase FLT3 (Homo sapiens), P36888 [UNDEFINED MUTATION] (P36888 whole entry, looked up, change not shown): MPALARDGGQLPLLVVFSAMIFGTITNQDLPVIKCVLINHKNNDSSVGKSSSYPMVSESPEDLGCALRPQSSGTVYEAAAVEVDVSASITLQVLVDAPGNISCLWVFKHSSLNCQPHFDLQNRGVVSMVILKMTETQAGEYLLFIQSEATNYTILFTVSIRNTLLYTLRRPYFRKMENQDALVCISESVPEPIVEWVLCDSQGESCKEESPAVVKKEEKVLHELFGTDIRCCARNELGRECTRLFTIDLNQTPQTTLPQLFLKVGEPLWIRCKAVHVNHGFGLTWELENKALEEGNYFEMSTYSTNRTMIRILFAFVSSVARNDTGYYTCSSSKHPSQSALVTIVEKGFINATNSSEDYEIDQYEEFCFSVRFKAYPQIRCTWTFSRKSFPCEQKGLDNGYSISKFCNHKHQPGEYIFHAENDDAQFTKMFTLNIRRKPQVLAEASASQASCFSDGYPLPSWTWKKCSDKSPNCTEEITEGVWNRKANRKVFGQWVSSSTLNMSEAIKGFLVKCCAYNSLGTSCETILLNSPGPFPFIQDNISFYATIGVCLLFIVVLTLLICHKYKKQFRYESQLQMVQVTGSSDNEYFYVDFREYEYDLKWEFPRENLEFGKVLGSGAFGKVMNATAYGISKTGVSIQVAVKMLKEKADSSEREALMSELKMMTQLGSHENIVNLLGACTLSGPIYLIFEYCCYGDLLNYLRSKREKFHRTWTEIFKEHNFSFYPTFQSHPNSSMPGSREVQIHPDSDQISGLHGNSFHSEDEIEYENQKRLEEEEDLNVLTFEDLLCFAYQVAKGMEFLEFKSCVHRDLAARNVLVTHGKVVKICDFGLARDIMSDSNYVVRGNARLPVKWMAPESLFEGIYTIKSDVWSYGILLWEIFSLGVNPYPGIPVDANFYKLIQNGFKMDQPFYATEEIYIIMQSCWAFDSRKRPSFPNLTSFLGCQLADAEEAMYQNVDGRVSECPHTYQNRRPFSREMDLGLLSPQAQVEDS

[43] = biological target: Mast/stem cell growth factor receptor Kit (Homo sapiens) (UniProt P10721); details: Compound concentration 1000.0 nM
[44] = biological target: Phosphatidylinositol 3-kinase C2 domain-containing subunit gamma (Homo sapiens) (UniProt O75747); details: Compound concentration 1000.0 nM
[45] = biological target: Insulin receptor-related protein (Homo sapiens) (UniProt P14616); details: Compound concentration 1000.0 nM

Chain of Serine/threonine-protein kinase NLK (Homo sapiens) (Q9UBE8 whole entry): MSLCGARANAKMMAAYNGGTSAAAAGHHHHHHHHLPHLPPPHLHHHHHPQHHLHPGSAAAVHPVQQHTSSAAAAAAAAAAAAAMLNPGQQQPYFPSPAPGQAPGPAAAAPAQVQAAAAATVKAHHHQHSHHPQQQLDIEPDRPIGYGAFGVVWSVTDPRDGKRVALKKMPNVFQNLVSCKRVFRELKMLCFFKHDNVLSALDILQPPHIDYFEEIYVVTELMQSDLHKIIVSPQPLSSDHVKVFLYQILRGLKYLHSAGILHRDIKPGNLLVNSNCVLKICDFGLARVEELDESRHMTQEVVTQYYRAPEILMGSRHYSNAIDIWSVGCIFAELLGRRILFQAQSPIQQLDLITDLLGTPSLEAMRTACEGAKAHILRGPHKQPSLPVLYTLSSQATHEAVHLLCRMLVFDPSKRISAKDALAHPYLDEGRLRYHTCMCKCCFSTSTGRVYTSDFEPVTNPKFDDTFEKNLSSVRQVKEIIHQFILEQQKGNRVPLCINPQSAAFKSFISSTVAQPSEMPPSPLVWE

**Q.** How did the residual activity [1] turn out when `Cc1cc(-n2nc(Cc3cc(F)cc(C(F)(F)F)c3)nc2C)ccc1C(N)=O` [TP-024] was run?
**A.** 100%

**Q.** What about the residual activity [2] of the same compound?
**A.** 100%

**Q.** And the residual activity [3]?
**A.** 100%

**Q.** And the residual activity [4]?
**A.** 92%

**Q.** What about the residual activity [5] of the same compound?
**A.** 100%

**Q.** What about the residual activity [6] of the same compound?
**A.** 93%

**Q.** And the residual activity [7]?
**A.** 98%

**Q.** And the residual activity [8]?
**A.** 100%

**Q.** What about the residual activity [9] of the same compound?
**A.** 99%

**Q.** And the residual activity [10]?
**A.** 100%

**Q.** What about the residual activity [11] of the same compound?
**A.** 88%

**Q.** And the residual activity [12]?
**A.** 100%

**Q.** And the residual activity [13]?
**A.** 95%

**Q.** What about the residual activity [14] of the same compound?
**A.** 77%

**Q.** And the residual activity [15]?
**A.** 94%

**Q.** What about the residual activity [16] of the same compound?
**A.** 100%

**Q.** What about the residual activity [17] of the same compound?
**A.** 99%

**Q.** And the residual activity [18]?
**A.** 77%

**Q.** What about the residual activity [19] of the same compound?
**A.** 81%

**Q.** What about the residual activity [20] of the same compound?
**A.** 100%

**Q.** What about the residual activity [21] of the same compound?
**A.** 100%

**Q.** And the residual activity [22]?
**A.** 99%

**Q.** And the residual activity [23]?
**A.** 100%

**Q.** And the inhibition [24]?
**A.** 6.84%

**Q.** And the residual activity [25]?
**A.** 100%

**Q.** And the residual activity [26]?
**A.** 100%

**Q.** What about the residual activity [27] of the same compound?
**A.** 97%

**Q.** And the residual activity [28]?
**A.** 87%

**Q.** And the residual activity [29]?
**A.** 91%

**Q.** What about the residual activity [30] of the same compound?
**A.** 100%

**Q.** And the residual activity [31]?
**A.** 100%

**Q.** What about the residual activity [32] of the same compound?
**A.** 100%

**Q.** And the residual activity [33]?
**A.** 89%

**Q.** What about the residual activity [34] of the same compound?
**A.** 97%

**Q.** What about the inhibition [35] of the same compound?
**A.** 10.5%

**Q.** And the residual activity [36]?
**A.** 100%

**Q.** What about the residual activity [37] of the same compound?
**A.** 100%

**Q.** What about the residual activity [38] of the same compound?
**A.** 100%

**Q.** And the residual activity [39]?
**A.** 100%

**Q.** What about the residual activity [40] of the same compound?
**A.** 98%

**Q.** And the residual activity [41]?
**A.** 94%

**Q.** And the residual activity [42]?
**A.** 100%

**Q.** And the residual activity [43]?
**A.** 100%

**Q.** What about the residual activity [44] of the same compound?
**A.** 100%

**Q.** What about the residual activity [45] of the same compound?
**A.** 100%

**Q.** How did the residual activity [1] turn out when `Cc1nc(Cc2cccc(C(F)(F)F)c2)sc1-c1ccc(C(N)=O)nc1` [TP-024n] was run?
**A.** 100%

**Q.** What about the residual activity [2] of the same compound?
**A.** 100%

**Q.** And the residual activity [3]?
**A.** 99%

**Q.** What about the residual activity [4] of the same compound?
**A.** 92%

**Q.** And the residual activity [5]?
**A.** 100%

**Q.** And the residual activity [6]?
**A.** 89%

**Q.** And the residual activity [7]?
**A.** 84%

**Q.** What about the residual activity [8] of the same compound?
**A.** 100%

**Q.** And the residual activity [9]?
**A.** 73%

**Q.** And the residual activity [10]?
**A.** 100%

**Q.** And the residual activity [11]?
**A.** 67%

**Q.** What about the residual activity [12] of the same compound?
**A.** 100%

**Q.** And the residual activity [13]?
**A.** 90%

**Q.** And the residual activity [14]?
**A.** 35%

**Q.** What about the residual activity [15] of the same compound?
**A.** 100%

**Q.** And the residual activity [16]?
**A.** 100%

**Q.** And the residual activity [17]?
**A.** 92%

**Q.** And the residual activity [18]?
**A.** 83%

**Q.** And the residual activity [19]?
**A.** 63%

**Q.** What about the residual activity [20] of the same compound?
**A.** 91%

**Q.** What about the residual activity [21] of the same compound?
**A.** 100%

**Q.** What about the residual activity [22] of the same compound?
**A.** 100%

**Q.** And the residual activity [23]?
**A.** 100%

**Q.** What about the inhibition [24] of the same compound?
**A.** 24.6%

**Q.** What about the residual activity [25] of the same compound?
**A.** 90%

**Q.** And the residual activity [26]?
**A.** 0.3%

**Q.** What about the residual activity [27] of the same compound?
**A.** 100%

**Q.** What about the residual activity [28] of the same compound?
**A.** 70%

**Q.** What about the residual activity [29] of the same compound?
**A.** 81%

**Q.** And the residual activity [30]?
**A.** 100%

**Q.** What about the residual activity [31] of the same compound?
**A.** 100%

**Q.** What about the residual activity [32] of the same compound?
**A.** 100%

**Q.** And the residual activity [33]?
**A.** 90%

**Q.** What about the residual activity [34] of the same compound?
**A.** 87%

**Q.** And the inhibition [35]?
**A.** 9.13%

**Q.** And the residual activity [36]?
**A.** 86%

**Q.** And the residual activity [37]?
**A.** 81%

**Q.** And the residual activity [38]?
**A.** 100%

**Q.** And the residual activity [39]?
**A.** 84%

**Q.** And the residual activity [40]?
**A.** 100%

**Q.** And the residual activity [41]?
**A.** 82%

**Q.** What about the residual activity [42] of the same compound?
**A.** 100%

**Q.** And the residual activity [43]?
**A.** 100%

**Q.** And the residual activity [44]?
**A.** 93%

**Q.** And the residual activity [45]?
**A.** 100%
